These results are taken from patent US20260124188A1, “mGluR receptor antagonists for use in prevention andor treatment of bone marrow lesions (BML) andor osteoporosis, cartilage loss, osteosclerosis and osteitis in a mammal” (Orphelion AB, priority 2022, published 2026).

This data set can be described thus: Dissolution of TT001 in I.V. formulation vehicle. The following applies: 0.1 to 10 mg/ml in 40% w/v HPβCD solution in water for injection; a couple of hours for complete dissolution. Format: physicochemical. The method, then: FORMULATION METHOD FOR THE PREPARATION OF TT001 FOR I.V. DOSING, 0.1 to 10 mg/ml The formulation method is applicable at concentrations in formulation between 0.1 and 10 mg/mL corresponding to 0.262 and 26.2 μmol/mL • TT001 M.W.: 381.8 g/mol • 10 The dissolution of TT001 is moderate, allow a couple of hours for complete dissolution.
• Preparation of 40% w/v HPβCD solution in water for injection • Excipients Hydroxypropyl-β-cyclodextrin, Kleptose, Roquette (HPβCD) 400 mg (40% w/v) • Water for injection to 1 ml (1.13 g) • is Appearance Clear • Density 1.13 g/cm^3
• Preparation of TT001 I.V. formulations between 0.1 and 10 mg/ml • TT001 parent form 0.1-10 mg • Vehicle (40% w/v HPβCD solution in water for injection) to 1 ml (1.13 g) • Appearance Clear • Density 1.13 g/cm^3 • Comments

As for `C[C@@H](Oc1nnc(-c2ccncc2)n1C)c1cc(-c2cccc(Cl)c2)on1` [TT001, 4-[5-[(1R)-1-[5-(3-Chlorophenyl)-3-isoxazolyl]ethoxy]-4-methyl-4H-1,2,4-triazol-3-yl]pyridine], the dissolution entry is “moderate”.
